Measurements reported in ChEMBL document CHEMBL1697731, “Cheminformatics analysis of assertions mined from literature that describe drug-induced liver injury in different species” (Chem Res Toxicol, 2010).

Assays:
[1] = test system: Hepatotoxicity; assay: Literature-mined compound from Fourches et al multi-species drug-induced liver injury (DILI) dataset, effect in non-rodents
[2] = test system: Hepatotoxicity; assay: Literature-mined compound from Fourches et al multi-species drug-induced liver injury (DILI) dataset, effect in rodents; details: rodentia
[3] = test system: Hepatotoxicity; assay: Literature-mined compound from Fourches et al multi-species drug-induced liver injury (DILI) dataset, effect in humans; details: human

Which results are given for PORFIMER SODIUM?
Hepatotoxicity [1]: no drug-induced liver injury reported; Hepatotoxicity [2]: drug-induced liver injury reported; Hepatotoxicity [3]: no drug-induced liver injury reported

SILYMARIN was tested. Which Hepatotoxicity [1] did it give?
Its Hepatotoxicity is “no drug-induced liver injury reported”.

What about the Hepatotoxicity [2] of the same substance?
Its Hepatotoxicity is “drug-induced liver injury reported”.

And the Hepatotoxicity [3]?
The Hepatotoxicity was “drug-induced liver injury reported”.

SPIRAMYCIN was tested. Which Hepatotoxicity [1] did it give?
Its Hepatotoxicity is “no drug-induced liver injury reported”.

What about the Hepatotoxicity [2] of the same substance?
The Hepatotoxicity was “no drug-induced liver injury reported”.

And the Hepatotoxicity [3]?
The Hepatotoxicity was “drug-induced liver injury reported”.

For TYLOXAPOL, which Hepatotoxicity [1] is on record?
The Hepatotoxicity was “no drug-induced liver injury reported”.

What about the Hepatotoxicity [2] of the same substance?
The Hepatotoxicity was “drug-induced liver injury reported”.

What about the Hepatotoxicity [3] of the same substance?
Its Hepatotoxicity is “no drug-induced liver injury reported”.

VITAMIN B12 was tested. Which Hepatotoxicity [1] did it give?
Its Hepatotoxicity is “no drug-induced liver injury reported”.

What about the Hepatotoxicity [2] of the same substance?
Its Hepatotoxicity is “no drug-induced liver injury reported”.

What about the Hepatotoxicity [3] of the same substance?
The Hepatotoxicity was “drug-induced liver injury reported”.

Which results are given for VITAMIN E?
Hepatotoxicity [1]: drug-induced liver injury reported; Hepatotoxicity [2]: drug-induced liver injury reported; Hepatotoxicity [3]: drug-induced liver injury reported

For VITAMIN K, which Hepatotoxicity [1] is on record?
The Hepatotoxicity was “no drug-induced liver injury reported”.

And the Hepatotoxicity [2]?
Its Hepatotoxicity is “drug-induced liver injury reported”.

What about the Hepatotoxicity [3] of the same substance?
Its Hepatotoxicity is “drug-induced liver injury reported”.
